Consider 40 compounds from PubChem BioAssay (NCI).

Experiment in all cases: NCI tumour cell line growth inhibition, 48 h
In assay [1] the test system is MDA-N.
For assay [2], the system named is DMS 114 small cell lung.
Assay [3] concerns DLD-1 colon.
In assay [4] the test system is LXFL 529 NSCLC.
Assay [5] has as its system KM20L2 colon.
Assay [6] has as its system DMS 273 small cell lung.
For assay [7], the system named is RXF-631 renal.
The subject of assay [8] is HOP-18 NSCLC.
The test system of assay [9] is XF 498 CNS.

Structures are written as SMILES. Where “and” joins values, the source holds several entries; their conditions need not be identical. Equal values may be shown once.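 96-well plates; 48 h exposure; 5 concentrations. Endpoints by linear interpolation between flanking doses. Not reached: highest tested concentration assigned. GI50: concentration for 50% inhibition of growth. Definition used: TGI = concentration required for complete inhibition of growth.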

For the compound `CN(C)N1C(=O)c2ccccc2NC1c1ccccc1` (configuration not stated), the TGI in assay [1] was > 100 µM.

On to `OCCSCc1ccccc1`, for which the TGI in [1] is > 100 µM.

Regarding `CC(=O)OC1CC2C(C)(C)C(=O)C=C[C@]2(C)C2CCC3(C)C(c4ccoc4)C(=O)[C@H]4O[C@]43[C@]12C` (some centres not stated), the TGI in assay [2] is > 100 µM; in assay [3] it was 28.3 µM; in [4], > 100 µM.

With `COc1cc2c3c(c1)c1cc(OC)c(OC)cc1c[n+]3CC2`, in assay [1], the GI50 was > 100 µM; the TGI is 50 µM and > 100 µM.

For `O=C1C[C@@H]2C(COC(=O)c3ccccc3)N(OCc3ccccc3)C[C@@H]2O1` (some centres not stated), the TGI in assay [5], in [6], in [7], in assay [2], in assay [3] and in [8] was > 100 µM throughout. In assay [4], the TGI was > 100 µM.

For `CN1c2ccccc2N(C)C2C1N(C)c1ccccc1N2C` (configuration not stated), the TGI was > 100 µM in assay [5]; > 100 µM in [6]; > 100 µM in [7]; 26 µM in [2]; 62.6 µM in [3]; 21.7 µM in assay [9]. For the same compound, in assay [4], the TGI is > 100 µM.

For the compound `CCOc1cc2c(NCCCN(CCO)CCO)ncnc2c(OCC)c1OCC`, the TGI in assay [1] was > 100 µM.

As for `Cc1ccc(S(=O)(=O)NC(=O)NC23CC4CC(CC(F)(C4)C2)C3)cc1`, the TGI in assay [5], in assay [6], in [2], in assay [3], in assay [9] and in assay [4] was > 100 µM in each case.

With `CC(=O)O[C@H]1CC[C@@]2(C)C(=CC[C@H]3C4=CC=C(C(C)=O)[C@@]4(C)CCC32)C1` (some centres not stated), the TGI in assay [5], in assay [6], in assay [3], in assay [8] and in assay [4] was > 100 µM in each case.

Regarding `CC1(C)OC(=O)C=C([O-])O1.CC1(C)OC(=O)C=C([O-])O1.O=S(=O)([O-])c1ccc([O-])c2ncccc12.O=S(=O)([O-])c1ccc([O-])c2ncccc12.[Ti+4]`, the GI50 in assay [5] is 43.3 µM; in [6], > 100 µM; in assay [2], > 100 µM; in assay [3], > 100 µM; in [8] it was 26 µM; in assay [4], 67.1 µM. The TGI in [5], in [6], in assay [2], in assay [3], in assay [8] and in assay [4] was > 100 µM throughout.

Consider `CCC(=O)C(C)C1=Nc2nnc(CCCCCCCc3nnc4n3C(=O)C(C(C)C(=O)CC)=N4)n2C1=O` (configuration not stated), for which the TGI in [5], in assay [2], in assay [8], in assay [9] and in assay [4] was > 100 µM each time.

Regarding `COC1OC(CO)C(O)C(O)C1Br` (configuration not stated), the TGI in assay [5], in assay [6], in assay [7], in assay [3], in assay [8] and in [9] was > 100 µM throughout. Also, the TGI in assay [4] is > 100 µM.

`CN1NC2(CCCCC2)ON=C1c1ccccc1`: the TGI in assay [5], in assay [2], in assay [3] and in assay [8] was > 100 µM each time.

As for `C1CCN(c2nsc(N3CCCCC3)n2)CC1`, the TGI in assay [5], in assay [6], in [7], in assay [2], in assay [3] and in assay [8] was > 100 µM throughout. In addition, in assay [4], the TGI was > 100 µM.

As to `COc1ccc2c(c1OC)C1=C(C2=O)c2cc3c(cc2CCN1)OCO3`, the TGI in assay [5] was 41 µM; in assay [6], 52.9 µM; in [2] it was 56.7 µM; in assay [3], > 100 µM; in [8], > 100 µM; in [9] it was 87.2 µM. The TGI in assay [4] is > 100 µM.

Consider `COC(=O)c1sc(C(=O)OC)c2c1CSC2`, for which the TGI in [5], in [1], in [6], in assay [7], in assay [2] and in assay [3] was > 100 µM each time. Also, the TGI is > 100 µM in assay [8], 81.6 µM in assay [9] and > 100 µM in [4].

Regarding `COCC(=O)CP(=O)(OC)OC`, the TGI in [6], in assay [2], in assay [9] and in assay [4] was > 100 µM in each case.

On to `CCNC(=O)C#CC(=O)NCC`, for which the GI50 in assay [5], in assay [6], in [7], in assay [2], in assay [3] and in assay [8] was > 10 µM throughout. For the same compound, the GI50 in [4] is > 10 µM. For the same compound, the TGI in assay [5] was > 100 µM; in [6], > 10 µM and 39.6 µM; in assay [7] it was > 100 µM; in assay [2] it was > 100 µM; in assay [3], > 64.9 µM; in [8], > 100 µM. Besides, the TGI in assay [9] and in assay [4] was > 100 µM each time.

Turning to `C(CCC[Te][Te]CCCCCCOC1CCCCO1)CCOC1CCCCO1` (configuration not stated), the TGI in assay [5] is 28.7 µM; in assay [2], 25.5 µM; in [3], 45.8 µM; in [8], 51.4 µM; in [9] it was 21.9 µM; in assay [4], 21.1 µM.

As for `CC(=O)OCCOCNC(=S)N/N=C(\C)c1cnc2ccccc2n1`, the TGI in assay [5] was > 100 µM; in assay [6], > 100 µM; in assay [2], 47.4 µM; in assay [3] it was > 100 µM; in assay [8], > 100 µM; in assay [9], > 100 µM. In addition, the TGI in [4] is > 100 µM.

Regarding `COc1ccc(C(N)=O)cc1N=NN(C)C`, the TGI in assay [5], in assay [6], in assay [3], in assay [8] and in assay [4] was > 100 µM each time.

In the case of `CN(CN1C(=O)C2Cc3ccccc3CN2C1=O)c1ccccn1` (configuration not stated), the TGI in assay [5], in assay [6], in [2], in assay [3], in assay [9] and in assay [4] was > 100 µM each time.

Regarding `CC[C@@]1(O)C(=O)NCc2c1cc1n(c2=O)Cc2cc3c(N)cccc3nc2-1`, in assay [1], the GI50 is 3.4 µM and the TGI was 28.1 µM.

For the compound `C[C@]1(CO)[C@H]2CC[C@@]34C=C[C@@](CO)(CC[C@H]3[C@]2(C)CC[C@H]1O)C4`, the TGI in assay [1] is > 100 µM.

For the compound `C=C=C(CC)C(C(=O)OC)N(CC)CC` (configuration not stated), the TGI in assay [5], in assay [7], in [2], in [3], in assay [8] and in assay [9] was > 100 µM throughout. Besides, the TGI in assay [4] was > 100 µM.

On to `COc1cccc(NC(=O)CC(=O)N2N=C(N(CCC#N)c3ccccc3C)CC2c2ccccc2)c1` (configuration not stated), for which the TGI in assay [5], in assay [6], in [7], in [2], in assay [3] and in [8] was > 100 µM in each case. The TGI in assay [4] is > 100 µM.

Turning to `Cn1c(=O)nc2n(-c3cccc(F)c3)c3ccccc3nc-2c1=O`, the TGI was 45.4 µM in assay [5]; 32.8 µM in assay [6]; > 100 µM in assay [3]; > 100 µM in assay [8]; > 100 µM in assay [4].

For the compound `CCCCNN`, the TGI in [1] was > 100 µM.

Consider `CC(C)c1ccc(/C(C(=O)O)=C(\O)C(=O)O)cc1`, for which the TGI in assay [1] is > 100 µM.

Consider `Cc1c(C(=O)c2ccccc2C(=O)O)c2ccccc2n1C`, for which the TGI in assay [5], in assay [6], in assay [2], in [3], in assay [9] and in assay [4] was > 100 µM in each case.

As for `O=C(O)/C(=C/c1c(O)ccc2ccccc12)c1csc(-c2nc(/C(=C\c3c(O)ccc4ccccc34)C(=O)O)cs2)n1`, the TGI in assay [5] amounted to 50.6 µM; in assay [2] it was 25.5 µM; in assay [3], 35.5 µM; in assay [4], 29.8 µM.

As for `CO/C1=C\C(C)=C\C(C)C(O)C(C)C/C(C)=C/C=C/C(OC)C(C(C)C(O)C(C)C2(O)CC(O)C(C)C(C(C)C)O2)OC1=O` (configuration not stated), the TGI was 0.0107 µM and 0.0233 µM in assay [6]; 10.3 µM in [2]; 21.7 µM in [3]; 21.9 µM in [8]; 0.0849 µM and 0.0294 µM in assay [9]. The GI50 in assay [9] is 0.0122 µM.

With `O=C1C=C(Br)C(=O)C12CCc1ccccc12` (configuration not stated), the TGI in assay [5] was determined as 64.5 µM; in [1], 38 µM; in [6] it was 37.8 µM; in [2], 45.2 µM; in assay [3], 28.8 µM; in [8], 16.1 µM. The results for the TGI in assay [9] and in [4] were 28.8 µM and 13.2 µM, respectively.

Take `CN1CCCN(C)C1c1cc([N+](=O)[O-])ccc1O`: the TGI in assay [1] was > 100 µM.

As to `CCOC(=O)C1(Cc2ccccc2)CCCCCN1` (configuration not stated), the TGI in [5], in assay [6], in [7], in assay [2], in assay [3] and in assay [8] was > 100 µM each time. The TGI in assay [4] was > 100 µM.

For `NC(=O)N/N=C/C(/C=N/NC(N)=O)[N+](=O)[O-]`, the TGI in [5], in [7], in [2], in assay [3], in [9] and in assay [4] was > 100 µM throughout.

Take `O=c1cc2ccccc2nn1Cc1ccccc1Cl`: the TGI in [5], in [6], in assay [2], in [3], in assay [8] and in assay [9] was > 100 µM each time.

For the compound `C1CSCCCSCCSCCCSC1`, in assay [1], the TGI is > 100 µM.

As for `N=c1nnc(=O)c2c(s1)-n1ncc(C(=O)O)c1NN2`, the TGI in assay [5], in [2], in assay [3], in [8] and in assay [4] was > 100 µM throughout.

For the compound `O=c1[nH]c(=O)n(C2OC(CO)C(O)C2O)c2c1CCCC2` (configuration not stated), the TGI in [1] is > 100 µM.
